Tests used:
Sprague Dawley (SD) rats = experiment: Anabolic assay: lumbar (L3) BMD by DEXA, PTH constructs with or without OPG-Fc; type: in vivo; details: 6-month-old male SD rats, DEXA Day 7; OPG-Fc 1 mg/kg once; PTH-(1-34) 20 nMoles/kg x3; PTH-(1-34)-Fc 60 nMoles/kg once
Description: Briefly, 6-month-old male Sprague Dawley (SD) rats were divided into groups of 6. Baseline bone mineral density (BMD) was determined in the third lumbar vertebra (L3) of all rats by dual-energy X-ray absorptiometry (DEXA) (Day 0). Rats were then treated according to the following schedule:
Group 1: Vehicle controls (PBS, injected SC, Days 1, 3, and 5)
Group 2: OPG-Fc, single SC injection (1 mg/kg) on Day 1
Group 3: PTH-(1-34), SC injections on Days 1, 3, and 5, at 20 nMoles PTH/kg/injection. This represents an optimal anabolic PTH regimen.
Group 4: Same as group 3, but with a single OPG-Fc injection on Day 1.
Group 5: Single SC injection of PTH-(1-34)-Fc at 60 nMoles/kg, on Day 1. This represents a molar dose which is equivalent to the total dose of PTH-(1-34) received by group 3, but in a single injection.
Group 6: Same as group 5, but with a single OPG-Fc injection (SC, 1 mg/kg) on Day 1.
DEXA of the lumbar spine was performed again on Day 7 to evaluate changes in BMD. […] The anabolic effect of a single treatment with PTH-(1-34)-Fc plus OPG-Fc was greater than that induced by multiple injections of PTH-(1-34), with or without OPG-Fc co-treatment.
Normal 6 month old male rats were treated with PTH-Fc or PTH or vehicle by a single SC injection. Some rats also received a single SC injection of OPG. BMD was determined 7 days later by DEXA. Data represent means+SD, N=6 rats/group.

[1] = tested on: rat osteoblast-like ROS 17/2.8 cells; experiment: cAMP accumulation assay (IBMX, 15 minute challenge, ELISA); type: cell-based; details: 15 minutes
Description: Cultures were treated with the phosphodiesterase inhibitor IBMX and then challenged for 15 minutes with various PTH fragments. CAMP was measured by ELISA.
We tested the relative ability of PTH-Fc constructs to stimulate cAMP accumulation in rat osteoblast-like ROS 17/2.8 cells. Cultures were treated with the phosphodiesterase inhibitor IBMX to promote the accumulation of cAMP. Cultures were then challenged for 15 minutes with either vehicle (PBS), or various PTH constructs.

male BDF1 mice = experiment: Monotherapy in adult mice: twice-weekly PTH-(1-34)-Fc versus daily PTH-(1-34), tibial BMD by pQCT; type: in vivo; details: 3 weeks, PTH-(1-34)-Fc twice weekly, various doses
Description: Daily PTH [PTH-(1-34)] was given at 80 μg/kg/day (20 nmol/kg/day).
Briefly, male BDF1 mice (4 months of age) were treated twice per week by subcutaneous injection with various doses of PTH-(1-34)-Fc or with vehicle (PBS). Other mice were treated daily with SC injections of PTH-(1-34) at a dose of 80 μg/kg/day (20 nmol/kg/day), a treatment regimen which is optimal for increasing bone mass in rodents (M. Gunness-Hey and J. M. Hock, Metab. Bone Dis. & Rel. Res. 5:177-181, 1984). After 3 weeks, mice were sacrificed and tibiae were analyzed for bone mineral density (BMD) via pQCT (FIG. 10).

mice [2] = experiment: Hypercalcemia assay: murine hypercalcemia model, single SC injection, blood ionized calcium; type: in vivo; details: single SC injection, equimolar doses, blood ionized calcium
Description: Mice were challenged with vehicle (PBS, —X—), or with PTH-(1-34) (open symbols) or with PTH-(1-34)-Fc (closed symbols). Doses were 156 nmol/kg (circles), 469 nmol/kg (triangles) or 1,560 nmol/kg (squares). Data represent group means, n=6 mice/group.
We tested the potency and duration of effect of PTH-(1-34)-Fc in a murine hypercalcemia model. Briefly, mice were injected once SC with varying doses of PTH-(1-34) or PTH-(1-34)-Fc, and peripheral blood was collected from the retroorbital sinus for determination of blood ionized calcium. The half-life and the potency of PTH-(1-34)-Fc was greater than that of PTH-(1-34), as evidenced by the sustained hypercalcemic response of mice to the former agent (FIG. 4). Hypercalcemia induced by PTH-(1-34) persisted for 6-24 h, while equimolar doses of PTH-(1-34)-Fc caused more sustained hypercalcemia (48-72 h). This duration of response is consistent with greater half-life of the PTH-(1-34)-Fc construct vs. PTH-(1-34).

mice [3] = experiment: Mouse bioassay: SC injection days 0, 5, 10; clinical chemistry (calcium, AP, TRAP) and tibial pQCT; type: in vivo
Description: Peripheral blood was obtained daily for 3 days following single subcutaneous injections of the indicated compounds.
Peripheral quantitative computed tomography (pQCT) was performed on the proximal tibial metaphysis of mice on day 15, after injections of PTH constructs on day 0, 5 and 10.
We then tested the effects of PTH-(1-34), PTH-(1-34)-Fc, PTH-(1-31)-Fc and PTH-(1-30)-Fc in mice. Four week old male mice were injected on days 0, 5, and 10 with vehicle or with PTH fragments, by SC injection. Peripheral blood was obtained for clinical chemistry at 24, 48, and 72 h. Mice were killed on day 15, vertebrae, tibiae and femurs were harvested for histology and one tibia was collected for bone density measurements (peripheral quantitative computed tomography, pQCT). Clinical chemistry endpoints included total serum calcium, serum alkaline phosphatase (AP, a marker of osteoblast activity), and serum tartrate-resistant acid phosphatase (TRAP, a marker of osteoclast activity). For each animal, the ratio of AP:TRAP was calculated as an index of relative osteoblast activity compared to osteoclast activity. A higher AP:TRAP ratio would indicate a potentially more anabolic agent.

mice [4] = details: non-Fc conjugated peptide, stated as usual behaviour; cited from earlier work

human PTH(1-34) [PTH-(1-34), reference compound]
BMD in L3 compared to PBS-treated rats (Sprague Dawley (SD) rats): increased modestly
potency in cAMP accumulation relative to PTH-(1-31)-Fc and PTH-(1-30)-Fc [1]: slightly more potent
cancellous BMD compared to vehicle (male BDF1 mice; PTH-(1-34) daily 80 μg/kg/day): significantly increased
total tibial BMD compared to vehicle (male BDF1 mice; PTH-(1-34) daily 80 μg/kg/day): significantly increased
cortical BMD in the tibia (male BDF1 mice; PTH-(1-34) daily): not significantly enhanced
duration of hypercalcemia (mice [2]): 6 to 24 h
calculated AP:TRAP ratio (mice [3]; 300 nmoles/kg): unchanged
serum AP (osteoblast marker) (mice [3]; 300 nmoles/kg (given for PTH-(1-34)-Fc), 72 h): unchanged
serum calcium (mice [3]; 300 nmoles/kg SC (equimolar), 24, 48, 72 h): not significantly different
bone mineral density (proximal tibial metaphysis) (mice [3]; 300 nmoles/kg on day 0, 5, 10, pQCT day 15): modest (non-significant) anabolic effect
serum TRAP (osteoclast marker) (mice [3]; mice, after single SC injection): not significantly changed
duration of transient increase in serum calcium normally caused (mice [4]): 12 h

Source: patent US6756480B2, “Modulators of receptors for parathyroid hormone and parathyroid hormone-related protein” (Amgen Inc., priority 2000, dated 2004)
